Measured values taken from the NIST ThermoML archive (doi:10.1021/je500153g).

Experiment: xn = mol fraction of the nth substance listed
Settings: 101 kPa, Liquid; for viscosity: Concentric cylinders viscometry; for mass density: Vibrating tube method

O=S1(=O)CCCC1 [sulfolane] + CC(C)O
Settings	mass density, 303.15 K [kg/m3]	mass density, 313.15 K [kg/m3]	mass density, 323.15 K [kg/m3]	mass density, 333.15 K [kg/m3]	mass density, 343.15 K [kg/m3]	viscosity, 303.15 K [mPa·s]	viscosity, 313.15 K [mPa·s]	viscosity, 323.15 K [mPa·s]	viscosity, 333.15 K [mPa·s]	viscosity, 343.15 K [mPa·s]
x1 = 0.075	823.6	814.6	805.3	795.5	785.2	1.62	1.27	1.01	0.81	0.66
x1 = 0.164	875.9	866.9	857.5	847.9	837.9	1.69	1.34	1.08	0.89	0.74
x1 = 0.25	924	914.8	905.4	896	886	1.85	1.48	1.2	1	0.84
x1 = 0.353	978.7	969.6	960.4	950.7	941.1	2.14	1.71	1.41	1.18	0.99
x1 = 0.437	1021.3	1012.1	1002.9	993.8	984.3	2.43	1.96	1.62	1.36	1.14
x1 = 0.536	1069.3	1060.2	1050.9	1041.6	1032.1	2.91	2.35	1.95	1.64	1.4
x1 = 0.656	1124.3	1115.3	1106.2	1097	1087.7	3.75	3.03	2.5	2.11	1.8
x1 = 0.768	1172.1	1163.1	1154.1	1145.1	1135.9	4.97	3.99	3.27	2.73	2.32
x1 = 0.88	1219.3	1210.4	1201.6	1192.6	1183.7	6.92	5.48	4.45	3.68	3.1
x1 = 1	1262.9	1254.1	1245.2	1236.6	1228.1	10.4	8.07	6.45	5.22	4.32

O=S1(=O)CCCC1 [sulfolane] + CCC(C)O
Settings	mass density, 303.15 K [kg/m3]	mass density, 313.15 K [kg/m3]	mass density, 323.15 K [kg/m3]	mass density, 333.15 K [kg/m3]	mass density, 343.15 K [kg/m3]	viscosity, 303.15 K [mPa·s]	viscosity, 313.15 K [mPa·s]	viscosity, 323.15 K [mPa·s]	viscosity, 333.15 K [mPa·s]	viscosity, 343.15 K [mPa·s]
x1 = 0.099	846.6	837.8	828.8	819.3	809.4	2.16	1.62	1.26	1	0.8
x1 = 0.198	894.1	885.2	876	866.7	857	2.17	1.67	1.33	1.08	0.89
x1 = 0.298	941.7	932.9	923.8	914.6	905	2.34	1.83	1.49	1.21	1.01
x1 = 0.38	980.6	971.7	962.6	953.3	943.9	2.56	2.01	1.63	1.35	1.14
x1 = 0.499	1036.4	1027.5	1018.4	1009.3	1000	2.98	2.37	1.93	1.61	1.37
x1 = 0.593	1079.6	1070.7	1061.8	1052.7	1043.5	3.46	2.77	2.27	1.89	1.62
x1 = 0.691	1125.1	1116.2	1107.2	1098.2	1089.2	4.19	3.36	2.76	2.31	1.97
x1 = 0.799	1173.9	1165.1	1156.2	1147.4	1138.5	5.41	4.32	3.53	2.94	2.49
x1 = 0.9	1219	1210.1	1201.4	1192.5	1183.7	7.23	5.72	4.63	3.82	3.21
x1 = 1	1262.9	1254.1	1245.2	1236.6	1228.1	10.4	8.07	6.45	5.22	4.32

O=S1(=O)CCCC1 [sulfolane] + OCCOCCO
Settings	mass density, 303.15 K [kg/m3]	mass density, 313.15 K [kg/m3]	mass density, 323.15 K [kg/m3]	mass density, 333.15 K [kg/m3]	mass density, 343.15 K [kg/m3]	viscosity, 303.15 K [mPa·s]	viscosity, 313.15 K [mPa·s]	viscosity, 323.15 K [mPa·s]	viscosity, 333.15 K [mPa·s]	viscosity, 343.15 K [mPa·s]
x1 = 0.097	1125	1117.6	1110.2	1102.7	1094.9	19.1	12.9	9.13	6.74	5.15
x1 = 0.198	1140	1132.5	1124.8	1117	1109.1	16.3	11.2	8.04	6.01	4.65
x1 = 0.319	1158.2	1150.3	1142.3	1134.2	1126.1	13.8	9.62	7.03	5.35	4.19
x1 = 0.414	1172.2	1164.2	1156.1	1147.8	1139.6	12.2	8.7	6.46	4.97	3.94
x1 = 0.499	1185.2	1176.9	1168.6	1160.3	1151.9	11.2	8.07	6.07	4.72	3.78
x1 = 0.614	1202.9	1194.5	1186	1177.5	1169	10.2	7.49	5.72	4.5	3.64
x1 = 0.698	1215.6	1207.1	1198.5	1190	1181.3	9.72	7.25	5.61	4.47	3.64
x1 = 0.789	1229.7	1221.1	1212.5	1203.8	1195.1	9.35	7.08	5.54	4.46	3.66
x1 = 0.887	1245	1236.3	1227.5	1218.8	1210.1	9.39	7.23	5.72	4.64	3.84
x1 = 1	1262.9	1254.1	1245.2	1236.6	1228.1	10.4	8.07	6.45	5.22	4.32

OCCOCCOCCO [triethylene glycol] + O=S1(=O)CCCC1
Settings	mass density, 303.15 K [kg/m3]	mass density, 313.15 K [kg/m3]	mass density, 323.15 K [kg/m3]	mass density, 333.15 K [kg/m3]	mass density, 343.15 K [kg/m3]	viscosity, 303.15 K [mPa·s]	viscosity, 313.15 K [mPa·s]	viscosity, 323.15 K [mPa·s]	viscosity, 333.15 K [mPa·s]	viscosity, 343.15 K [mPa·s]
x2 = 0	1116.5	1108.9	1101.1	1093.4	1085.5	29.5	19.3	13.3	9.58	7.16
x2 = 0.123	1130.3	1122.4	1114.6	1106.6	1098.5	25.6	16.9	11.8	8.6	6.49
x2 = 0.268	1147.6	1139.5	1131.5	1123.3	1115	21.2	14.3	10.1	7.49	5.74
x2 = 0.505	1178.8	1170.5	1161.9	1153.4	1145	15.6	10.9	8	6.09	4.78
x2 = 0.598	1192.2	1183.7	1175.1	1166.6	1158	13.9	9.9	7.36	5.67	4.49
x2 = 0.678	1204.5	1196	1187.5	1178.8	1170.1	12.6	9.13	6.88	5.36	4.29
x2 = 0.768	1219	1210.3	1201.5	1192.9	1184.3	11.4	8.4	6.43	5.09	4.12
x2 = 0.837	1231.3	1222.6	1213.9	1205.2	1196.4	10.8	8.11	6.29	5.01	4.1
x2 = 0.929	1248.8	1240	1231.2	1222.4	1213.7	10.3	7.89	6.22	5.02	4.13
